From patent US11986471B2, “Compounds and methods of use” (Tango Therapeutics, Inc., priority 2018, dated 2024)

Legend:
[1] = test system: HAP1 MTAP-intact; experiment: SDMA in-cell western assay, HAP1 MTAP-intact cell line; format: cell-based; conditions: Homo sapiens
How it was run: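 Potency reflects cellular SDMA reduction, detected by in-cell western, in HAP1 cells with or without MTAP (endogenous expression versus null).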

[2] = biological target: T1, PRMT5 (Homo sapiens, UniProt O14744); experiment: PRMT5 IC50 assay in the presence of SAM as cofactor; format: biochemical
T1 construct: purchased Viva (custom protein)
T1 sequence (O14744 whole entry): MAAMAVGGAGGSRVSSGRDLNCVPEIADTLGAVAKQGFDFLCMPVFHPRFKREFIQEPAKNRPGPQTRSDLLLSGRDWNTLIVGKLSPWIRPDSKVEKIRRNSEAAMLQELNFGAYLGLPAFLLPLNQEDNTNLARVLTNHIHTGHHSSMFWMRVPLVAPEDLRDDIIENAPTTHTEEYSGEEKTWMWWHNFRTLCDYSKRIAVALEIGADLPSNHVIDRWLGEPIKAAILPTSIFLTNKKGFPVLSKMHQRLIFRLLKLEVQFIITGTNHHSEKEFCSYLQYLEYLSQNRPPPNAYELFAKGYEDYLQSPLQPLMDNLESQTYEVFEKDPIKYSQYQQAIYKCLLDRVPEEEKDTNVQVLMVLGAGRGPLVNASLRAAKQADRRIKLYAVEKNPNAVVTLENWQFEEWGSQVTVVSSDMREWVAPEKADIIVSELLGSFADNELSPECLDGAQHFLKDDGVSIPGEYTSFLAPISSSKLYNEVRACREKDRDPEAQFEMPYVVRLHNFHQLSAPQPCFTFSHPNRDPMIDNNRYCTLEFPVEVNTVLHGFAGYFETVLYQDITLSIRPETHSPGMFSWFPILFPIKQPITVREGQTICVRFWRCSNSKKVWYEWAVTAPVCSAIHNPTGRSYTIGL
T1 sequence (Q9BQA1 whole entry partner): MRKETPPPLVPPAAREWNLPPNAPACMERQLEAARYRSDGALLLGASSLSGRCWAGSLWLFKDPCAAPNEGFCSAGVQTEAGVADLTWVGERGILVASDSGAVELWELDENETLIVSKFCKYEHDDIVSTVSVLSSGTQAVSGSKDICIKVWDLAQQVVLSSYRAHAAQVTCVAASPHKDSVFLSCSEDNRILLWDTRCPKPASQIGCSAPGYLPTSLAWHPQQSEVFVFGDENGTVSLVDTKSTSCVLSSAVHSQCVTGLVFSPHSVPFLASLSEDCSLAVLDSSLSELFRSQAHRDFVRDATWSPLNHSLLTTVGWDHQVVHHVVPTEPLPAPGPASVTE
How it was run: (§1)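 Ki conversion: SAM arm, Ki=IC50/1.5; MTA arm, Ki=IC50/13.5. No-cofactor arm reported as IC50 only. Selectivity expressed as Ki(SAM)/Ki(MTA).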

[3] = test system: HAP1 MTAP-deleted; experiment: SDMA in-cell western assay, HAP1 MTAP-deleted cell line; format: cell-based; conditions: for IC50: Homo sapiens, HAP1 MTAP-deleted cell line; for MTAP Intact/Deleted Ratio: IC50 ratio HAP1 MTAP-intact / HAP1 MTAP-deleted
How it was run: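 These are IC50 values from an in-cell western measuring SDMA. The HAP1 cells used carry no MTAP, in contrast to the isogenic partner line with endogenous MTAP expression.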

[4] = biological target: T1, PRMT5; experiment: PRMT5 IC50 assay in the presence of MTA as cofactor; format: biochemical; conditions: for IC50: PRMT5, MTA as cofactor
How it was run: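 For the SAM-containing format, dividing IC50 by 1.5 yields Ki; for the MTA-containing format the divisor is 13.5. A third format without cofactor gives IC50 alone.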

[5] = biological target: T1, PRMT5; experiment: PRMT5 IC50 assay with no cofactor; format: biochemical
How it was run: as §1

[6] = ratio between Ki in the presence of SAM and Ki in the presence of MTA
[7] = ratio between the Ki in the presence of SAM and the Ki in the presence of MTA

Row | SMILES | IC50 [1] [nM] | IC50 [2] [nM] | IC50 [3] [nM] | MTAP Intact/Deleted Ratio [3] | IC50 [4] [nM] | SAM/MTA Ratio [4, 6] | IC50 ([5]; read-out: No Co-factor IC50) [nM] | SAM/MTA Ratio [4, 7] | IC50 [5] [nM]
1 | Cc1cc(OCc2cnco2)cc2c1CN(C[C@@H](O)CNC(=O)c1ccnc(NC3CCC3)c1)CC2 [Compound 260, 2-(cyclobutylamino)-N-[(2S)-2-hydroxy-3-[8-methyl-6-(oxazol-5-ylmethoxy)-3,4-dihydro-1H-isoquinolin-2-yl]propyl]pyridine-4-carboxamide] | 1000 to 10000 | 500 to 5000 | 1000 to 10000 | C* (an IC50 ratio of less than 3 fold between the IC50 in the HAP1 MTAP-intact cell line and the HAP1 MTAP-deleted cell line) | 500 to 5000 | A (a Ki ratio greater than or equal to 10 fold between the Ki in the presence of SAM and the Ki in the presence of MTA) | ≥ 5000 | – | –
2 | Cc1c(OCc2cnco2)ccc2c1CCN(C[C@@H](O)CNC(=O)c1ccnc(NC3CC4CCCC43)c1)C2 (stereo partly drawn) [Compound 486, 2-(bicyclo[3.2.0]heptan-6-ylamino)-N—((S)-2-hydroxy-3-(5-methyl-6-(oxazol-5-ylmethoxy)-3,4-dihydroisoquinolin-2(1H)-yl)propyl)isonicotinamide] | ≥ 10000 | 50 to 500 | 1000 to 10000 | C* (an IC50 ratio of less than 3 fold between the IC50 in the HAP1 MTAP-intact cell line and the HAP1 MTAP-deleted cell line) | 50 to 500 | – | – | A (a Ki ratio greater than or equal to 10 fold between the Ki in the presence of SAM and the Ki in the presence of MTA) | ≥ 5000
3 | Cc1ncoc1COc1ccc2c(c1C)CCN(C[C@@H](O)CNC(=O)c1cc(NC3COC3)nc(N3CCCCC3)n1)C2 [Compound 391, N-[(2S)-2-hydroxy-3-{5-methyl-6-[(4-methyl-1,3-oxazol-5-yl)methoxy]-1,2,3,4-tetrahydroisoquinolin-2-yl}propyl]-6-[(oxetan-3-yl)amino]-2-(piperidin-1-yl)pyrimidine-4-carboxamide] | ≥ 10000 | 50 to 500 | < 1000 | A* (an IC50 ratio greater than or equal to 10 fold between the IC50 in the HAP1 MTAP-intact cell line and the HAP1 MTAP-deleted cell line) | 50 to 500 | A (a Ki ratio greater than or equal to 10 fold between the Ki in the presence of SAM and the Ki in the presence of MTA) | ≥ 5000 | – | –
4 | O=C(NC[C@H](O)CN1CCc2c(ccc(OCc3cnco3)c2Cl)C1)c1ccnc(NC2CCN(C(=O)C3CC3)CC2)c1 [Compound 366, (S)—N-(3-(5-chloro-6-(oxazol-5-ylmethoxy)-3N-dihydroisoquinolin-2(1H)-yl)-2-hydroxypropyl)-2-((1-(cyclopropanecarbonyl)piperidin-4-yl)amino)isonicotinamide] | ≥ 10000 | 50 to 500 | 1000 to 10000 | B* (an IC50 ratio greater than or equal to 3 fold but lower than 10 fold between the IC50 in the HAP1 MTAP-intact cell line and the HAP1 MTAP-deleted cell line) | 50 to 500 | A (a Ki ratio greater than or equal to 10 fold between the Ki in the presence of SAM and the Ki in the presence of MTA) | 500 to 5000 | – | –
5 | COc1cc(C(=O)NC[C@H](O)CN2CCc3cc(OCc4cnco4)ccc3C2)cc(NC2CCC2)n1 [Compound 310, (S)-2-(cyclobutylamino)-N-(2-hydroxy-3-(6-(oxazol-5-ylmethoxy)-3,4-dihydroisoquinolin-2(1H)-yl)propyl)-6-methoxyisonicotinamide] | 1000 to 10000 | 500 to 5000 | 1000 to 10000 | B* (an IC50 ratio greater than or equal to 3 fold but lower than 10 fold between the IC50 in the HAP1 MTAP-intact cell line and the HAP1 MTAP-deleted cell line) | 50 to 500 | A (a Ki ratio greater than or equal to 10 fold between the Ki in the presence of SAM and the Ki in the presence of MTA) | ≥ 5000 | – | –
6 | Cc1ncoc1COc1cc2c(cc1F)CN(C[C@@H](O)CNC(=O)c1ccc3c(c1)CCN(C(=O)c1ccc(Br)cc1)C3)CC2 [Compound 578, 2-(4-bromobenzoyl)-N-[(2S)-3-[7-fluoro-6-[(4-methyloxazol-5-yl)methoxy]-3,4-dihydro-1H-isoquinolin-2-yl]-2-hydroxy-propyl]-3,4-dihydro-1H-isoquinoline-6-carboxamide] | 1000 to 10000 | 50 to 500 | 1000 to 10000 | B* (an IC50 ratio greater than or equal to 3 fold but lower than 10 fold between the IC50 in the HAP1 MTAP-intact cell line and the HAP1 MTAP-deleted cell line) | 50 to 500 | – | – | A (a Ki ratio greater than or equal to 10 fold between the Ki in the presence of SAM and the Ki in the presence of MTA) | 500 to 5000
7 | CC(=O)N1CC(Nc2cc(C(=O)NC[C@H](O)CN3CCc4cc(OCc5ocnc5C)ccc4C3)cc(N3CCCCC3)n2)C1 [Compound 634] | 1000 to 10000 | 50 to 500 | 1000 to 10000 | B* (an IC50 ratio greater than or equal to 3 fold but lower than 10 fold between the IC50 in the HAP1 MTAP-intact cell line and the HAP1 MTAP-deleted cell line) | < 50 | A (a Ki ratio greater than or equal to 10 fold between the Ki in the presence of SAM and the Ki in the presence of MTA) | 50 to 500 | – | –
8 | Cc1ncoc1COc1ccc2c(c1C)CCN(C[C@@H](O)CNC(=O)c1cc(NC3CCCCC3)ncn1)C2 [Compound 368, 6-(cyclohexylamino)-N-[(2S)-2-hydroxy-3-{5-methyl-6-[(4-methyl-1,3-oxazol-5-yl)methoxy]-1,2,3,4-tetrahydroisoquinolin-2-yl}propyl]pyrimidine-4-carboxamide] | ≥ 10000 | 500 to 5000 | ≥ 10000 | C* (an IC50 ratio of less than 3 fold between the IC50 in the HAP1 MTAP-intact cell line and the HAP1 MTAP-deleted cell line) | 50 to 500 | A (a Ki ratio greater than or equal to 10 fold between the Ki in the presence of SAM and the Ki in the presence of MTA) | ≥ 5000 | – | –
9 | Cc1c(OCc2cnco2)ccc2c1CCN(C[C@@H](O)CNC(=O)c1ccnc(NC3CN(C(=O)CC(C)C)C3)c1)C2 [Compound 522, (S)—N-(2-hydroxy-3-(5-methyl-6-(oxazol-5-ylmethoxy)-3N-dihydroisoquinolin-2(1H)-yl)propyl)-2-((1-(3-methylbutanoyl)azetidin-3-yl)amino)isonicotinamide] | ≥ 10000 | 50 to 500 | ≥ 10000 | C* (an IC50 ratio of less than 3 fold between the IC50 in the HAP1 MTAP-intact cell line and the HAP1 MTAP-deleted cell line) | 50 to 500 | – | – | A (a Ki ratio greater than or equal to 10 fold between the Ki in the presence of SAM and the Ki in the presence of MTA) | ≥ 5000
10 | Cc1ncoc1COc1ccc2c(c1C)CCN(C[C@@H](O)CNC(=O)c1cc(NC3COC3)nc(N3CCN(C(=O)C4CC4)CC3)n1)C2 [Compound 414, 2-(4-cyclopropanecarbonylpiperazin-1-yl)-N-[(2S)-2-hydroxy-3-{5-methyl-6-[(4-methyl-1,3-oxazol-5-yl)methoxy]-1,2,3,4-tetrahydroisoquinolin-2-yl}propyl]-6-[(oxetan-3-yl)amino]pyrimidine-4-carboxamide] | ≥ 10000 | 50 to 500 | < 1000 | A* (an IC50 ratio greater than or equal to 10 fold between the IC50 in the HAP1 MTAP-intact cell line and the HAP1 MTAP-deleted cell line) | 50 to 500 | A (a Ki ratio greater than or equal to 10 fold between the Ki in the presence of SAM and the Ki in the presence of MTA) | ≥ 5000 | – | –
11 | Cc1c(OCc2cnco2)ccc2c1CCN(C[C@@H](O)CNC(=O)c1ccnc(NC3CC4(CC4)C3)c1)C2 [Compound 472] | ≥ 10000 | 50 to 500 | 1000 to 10000 | B* (an IC50 ratio greater than or equal to 3 fold but lower than 10 fold between the IC50 in the HAP1 MTAP-intact cell line and the HAP1 MTAP-deleted cell line) | 50 to 500 | – | – | A (a Ki ratio greater than or equal to 10 fold between the Ki in the presence of SAM and the Ki in the presence of MTA) | 500 to 5000
12 | CC(C)(C)C(=O)N1CCC(Nc2cc(C(=O)NC[C@H](O)CN3CCc4cc(OCc5cnco5)ccc4C3)ccn2)CC1 [Compound 449, 2-[[1-(2,2-dimethylpropanoyl)-4-piperidyl]amino]-N-[(2S)-2-hydroxy-3-[6-(oxazol-5-ylmethoxy)-3,4-dihydro-1H-isoquinolin-2-yl]propyl]pyridine-4-carboxamide] | 1000 to 10000 | 50 to 500 | < 1000 | C* (an IC50 ratio of less than 3 fold between the IC50 in the HAP1 MTAP-intact cell line and the HAP1 MTAP-deleted cell line) | 50 to 500 | – | – | A (a Ki ratio greater than or equal to 10 fold between the Ki in the presence of SAM and the Ki in the presence of MTA) | 500 to 5000
